Measured values reported in US20050130287A1, “Purifying process of soluble proteins of the l.obliqua bristles through prothrombin activation: process for a partial determination of the amino acids sequence of the prothrombin activator; process for determining the prothrombin activation of fraction II, n-terminal and internal fragments sequences” (priority 2002, published 2005).

Molecular target: T1, Lopap (Lonomia obliqua, UniProt Q5ECE3)
T1 construct: from tissue; host or cells: Lonomia obliqua caterpillar bristles
T1 sequence (Q5ECE3 17-201): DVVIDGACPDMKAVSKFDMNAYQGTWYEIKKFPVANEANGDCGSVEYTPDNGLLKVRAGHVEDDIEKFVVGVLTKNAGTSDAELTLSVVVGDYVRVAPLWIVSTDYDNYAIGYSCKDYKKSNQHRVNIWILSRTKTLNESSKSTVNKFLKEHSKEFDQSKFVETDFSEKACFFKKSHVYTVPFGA
Test: Lopap inhibition by PMSF or E-64 (S-2238)
Type: biochemical

SMILES	effect on Lopap activity (10 mM PMSF, Lopap 75 nM)	effect on Lopap activity (3,2 mM E-64, Lopap 75 nM)
O=S(=O)(F)Cc1ccccc1 [PMSF, phenylmethylsulphonil fluoride]	completely annulled	
CC(C)C[C@H](NC(=O)[C@H]1O[C@@H]1C(=O)O)C(=O)NCCCCN=C(N)N (relative stereo) [E-64, trans-epoxysuccinil-L-leucilamide-(4-guanidine-butane)]		did not affected it
